The record followed here is patent US4798898A, “Antitussive and mucus regulating 2-substituted thiazolidines” (Boehringer Biochemia Robin S.p.A., priority 1984, dated 1989).

Data set [1] is described as follows: Acute toxicity in mice. The settings on record: mouse, in vivo.
Data set [2] relates to pathological sputum of bronchitic rabbits. The data set is described as follows: Mucus regulating properties in bronchitic rabbits (sputum AUC as % compared to bronchitic controls). In kind it is in vivo, male New Zealand white rabbits. The settings on record: Table 2; oral, equimolecular amounts to S-carboxymethyl cysteine. Here is the method: The animals are submitted to inhalation of a 5% H2 SO3 aqueous solution by aerosol (exposition of 3 hours a day for 3 alternate days), to induce a chronic bronchial inflammatory disease which causes a production of pathological sputum in the bronchial tree.
Aim of the experiments is to evaluate modifications of selective parameters such as dry weight of the sputum, viscosity, content in proteins, phospholipids, galactose, sialic acid and fucose, induced in this pathological sputum by pharmacological treatment with the compounds of the invention.
To this purpose, the sputum produced in the bronchial tree is collected daily, through a "T" shaped glass cannula, inserted in the trachea, before and after oral twice a day (9.00 a.m. and 4.00 p.m.) treatment with one of the compounds of the invention.
The schedule treatment procedure is shown in the following Scheme 1: [drawing 21] where 0 indicates the day of implantation of the tracheal cannula; -7-5-3 indicate the days of H2 SO3 treatment (H); 1, 2, 3, 4 indicate the days of oral administration of the compounds of the invention (T) and the time of mucus collection (M).
The mucus collected in day 1 in the morning is considered as a blank; 7 indicates the day of the animal sacrifice after the mucous collection.
The sputum samples are stored in the freezer (-20° C.) until the investigation of biological and rheological parameters is carried out.
The samples are investigated for relative viscosity, measured at 37° C. with a Brookfield viscometer (model LT VD) equipped with a 1,565° cone-plate, and aliquoted for biochemical analysis of protein, phospholipids, galactose, sialic acid and fucose contents. Dry weight of the mucus is also determined. For each parameter, cumulative data are referred to a seven days period after the beginning of the treatment and they are extrapolated using the AUC method (area under curve) calculated by the trapazoidal rule. Finally the data are compared with data obtained from controls (vehicle treatment), non bronchitic rabbits (vehicle treatment) and positive controls bronchitic rabbits treated with 0.153M […].

The subject of data set [3] is mice. The data set is described as follows: Sedative effect. It counts as in vivo.
The subject of data set [4] is guinea pig trachea smooth muscle strips. The experiment in a line: In vitro relaxation of guinea pig trachea smooth muscle strips contracted by methacoline. The following applies: for EC50: Cavia porcellus, contracted by methacoline, read-out: ED50 (relaxation of trachea smooth muscle strips).
The subject of data set [5] is bronchospasm induced by i.v. histamine. The data set is described as follows: Resolution of bronchospasm induced by i.v. histamine in anesthetized guinea-pigs (Konzett-Ressler test). It counts as in vivo. The settings on record: intrajugular administration; more active than aminophylline.

Where a name gives a salt, the structure may show the parent alone. Where only a bound is given, the exact number is not on record here.

As for `CCOC(=O)[C@@H]1CSC(COc2ccccc2OC)N1C(=O)CSC(C)=O` (some centres unmarked) [4-carbethoxy-2-(o-methoxyphenoxy)methyl-3-acetylthioacetyl-thiazolidine], in data set [1] (ip), the LD50 stood at 670 mg/kg. This molecule also registered an LD50 in data set [1] (po, os) of 760 mg/kg. For the same molecule, in data set [2], the “Fucose (mg/ml), AUC as a 100% compared to bronchitic controls” value stood at 111%; the “Galactose (mg/ml), AUC as a 100% compared to bronchitic controls” value is 69%; the “Mucus production (ml/kg), AUC as a 100% compared to bronchitic controls” value was found to be 65%; the “Phospholipids (mg/ml), AUC as a 100% compared to bronchitic controls” value amounted to 102%. Besides, in data set [2], the “Protein (mg/ml), AUC as a 100% compared to bronchitic controls” value was determined as 79%; the “Sialic acid (mg/ml), AUC as a 100% compared to bronchitic controls” value was 78%; the “Viscosity (cps), AUC as a 100% compared to bronchitic controls” value amounted to 91%. Besides, in data set [3], the “sedative effect, starting dose” value was at least 30 mg/kg.
On to `Cn1c(=O)c2c(ncn2CC(O)CO)n(C)c1=O` (centres unmarked) [dihydroxypropyltheophylline, reference compound], for which the EC50 in data set [4] turned out to be 76 µM.
For the molecule `COc1ccccc1OCC1SCCN1C(=O)C=Cc1cc(CN2CCOCC2)c(O)c(OC)c1` (centres unmarked) [3-(3'-morpholinomethyl-4'-hydroxy-3'-methoxy-cinnamoyl)-2-(O-methoxyphenoxy)methylthiazolidine hydrochloride], the “activity relative to aminophylline in the resolution of bronchospasm” value in data set [5] is listed as 3-6 times. Besides, in data set [4], the “spasmolytic activity (in words)” value is recorded as “favourably compares with that of dihydroxypropyltheophylline” and the EC50 stood at 190 µM.
